Key:
[1] = biological target: T1, human GARFTase (formyltransferase domain) (Homo sapiens, UniProt P22102); assay: GAR transformylase; format: biochemical; conditions: ratio of Ki values
T1 sequence (P22102 810-1010 limits assumed): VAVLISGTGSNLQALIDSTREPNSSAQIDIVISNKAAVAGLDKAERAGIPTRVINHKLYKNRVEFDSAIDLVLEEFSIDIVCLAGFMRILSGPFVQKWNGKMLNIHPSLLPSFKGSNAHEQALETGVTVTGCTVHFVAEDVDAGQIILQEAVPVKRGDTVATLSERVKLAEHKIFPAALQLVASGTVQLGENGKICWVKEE

[2] = biological target: GARFTase; conditions: read-out: reported Ki with GARFTase; in vitro assays; cited from earlier work

Row | fold weaker GARFTase inhibition than AGF94 and AGF145 [1] | SMILES | Ki [2] [µM]
1 | roughly 1.5 fold | Nc1nc2[nH]c(CCCCCCCC(=O)N[C@@H](CCC(=O)O)C(=O)O)cc2c(=O)[nH]1 [AGF147] | –
2 | – | Nc1nc(N)c(CCCC(C(=O)C(F)(F)F)c2ccc(C(=O)N[C@@H](CCC(=O)O)C(=O)O)cc2)c(=O)[nH]1 (some centres unmarked) [10-trifluoroacetyl antifolate, 10-(trifluoroacetyl)-5,10-dideazaacyclic-5,6,7,8-tetrahydrofolic acid] | 0.015

From PMC5238714 (Biochemistry, 2016)
